The source of these data is BindingDB's records for doi:10.7270/Q2S46QC1 (Nmmlsc, 2009).

Structures are written as SMILES.

The target of the first experiment is Apoptosis regulator Bcl-2 (Homo sapiens, UniProt P10415). Nature of the experiment: inhibitors of Bim-Bcl-2 binding, confirmation, biochemical, dose response, multiplexed HTS hits (AID 2075).
Sequence of Apoptosis regulator Bcl-2 (P10415 whole entry): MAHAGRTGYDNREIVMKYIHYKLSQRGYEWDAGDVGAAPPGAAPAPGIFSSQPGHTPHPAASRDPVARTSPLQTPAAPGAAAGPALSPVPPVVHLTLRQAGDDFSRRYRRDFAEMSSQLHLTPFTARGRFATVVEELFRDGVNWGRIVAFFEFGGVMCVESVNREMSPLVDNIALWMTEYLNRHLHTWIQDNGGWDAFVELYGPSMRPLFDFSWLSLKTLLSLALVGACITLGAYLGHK
Conditions: not given
As for `O=C1NC(=O)C2(Cc3c(nc4ccccn4c3=O)N3CCCCCC32)C(=O)N1Cc1ccccc1` (configuration not stated) [MLS000083668], the EC50 came out at 2.25 µM.
Regarding `O=[N+]([O-])c1c(NCCCO)cc(Sc2nc3ccccc3s2)c2nonc12` [MLS000520994], the EC50 was found to be 1.91 µM.
The compound `CN(CCO)c1cc(Sc2nc3ccccc3s2)c2nonc2c1[N+](=O)[O-]` [MLS000520995] showed an EC50 of 6.35 µM.
On to `CC(=O)OCCCNc1cc(Sc2nc3ccccc3s2)c2nonc2c1[N+](=O)[O-]` [MLS000521052], for which the EC50 was 0.84 µM.
The same measure, in the same setting: with `Cc1cc2nn(-c3cccc4ccccc34)nc2cc1N` [SMR000076237] the figure was 1.9 µM; with `Cc1ccc(C=NNC(=O)CSc2nnc(-c3ccc(Cl)cc3)n2-c2ccccc2)o1` [SMR000218122], 12.3 µM.

The experiment is the same for the next values; noted with them: inactive by the depositor's call.
`O=C(NCc1ccccc1)c1ccc2nc(-c3ccco3)c(-c3ccco3)nc2c1` [2,3-bis(furan-2-yl)-N-(phenylmethyl)quinoxaline-6-carboxamide] yielded an EC50 of 20.6 µM.
The compound `Cc1ccc(-c2nc3c(c(=O)[nH]c(=O)n3Cc3ccccc3)n2C)o1` [7-methyl-8-(5-methyl-2-furanyl)-3-(phenylmethyl)purine-2,6-dione] displayed an EC50 of 48.2 µM.
Turning to `Clc1nc(NCc2cccnc2)nc(N2CCOCC2)n1` [MLS000121154], the response was half-maximal at 18.9 µM (EC50).
On to `COc1ccc(CCNC(=O)c2ccc3nc(-c4ccco4)c(-c4ccco4)nc3c2)cc1OC` [N-[2-(3,4-dimethoxyphenyl)ethyl]-2,3-di-2-furylquinoxaline-6-carboxamide], for which a half-maximal response (EC50) required 25.8 µM.
Still for that read-out and setting: the same measure for `COc1ccccc1NC1=C(NC(C)=O)C(=O)c2ccccc2C1=O` [N-[3-(2-methoxyanilino)-1,4-dioxonaphthalen-2-yl]acetamide]: 12.1 µM; for `CCN(CC)C(=O)COC(=O)c1cc(-c2ccco2)nc2ccccc12` [SMR000377201]: 29.5 µM.

As a reminder, the EC50 is the concentration needed to bring the measured effect to its halfway point.
